The target in experiment [1] is T1, human recombinant serotonin (5-Hydroxytryptamine) 5-HT2C receptor (Homo sapiens, UniProt P28335).
T1 construct: expressed in transfected cells; host or cells: CHO-K1 cells
T1 sequence (P28335 33-458): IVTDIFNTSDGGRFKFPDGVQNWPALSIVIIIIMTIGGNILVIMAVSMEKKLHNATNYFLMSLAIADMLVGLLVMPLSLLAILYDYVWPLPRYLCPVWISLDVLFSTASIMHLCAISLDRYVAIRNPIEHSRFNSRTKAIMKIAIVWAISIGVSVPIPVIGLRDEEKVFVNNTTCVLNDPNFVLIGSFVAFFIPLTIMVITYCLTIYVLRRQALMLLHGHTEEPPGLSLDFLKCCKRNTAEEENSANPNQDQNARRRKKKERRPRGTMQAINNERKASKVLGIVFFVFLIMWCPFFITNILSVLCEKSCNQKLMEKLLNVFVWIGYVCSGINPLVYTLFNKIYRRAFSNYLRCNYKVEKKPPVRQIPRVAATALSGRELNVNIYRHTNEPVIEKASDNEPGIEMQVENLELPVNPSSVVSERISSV
In words: Serotonin 5-HT2C radioligand binding ([3H]Mesulergine). The conditions noted are these: for inhibition at 1 µM: 1 h, read-out: Percent Inhibition of ligand binding Serotonin (1 μM ligand concentration) 5-HT2C. The protocol: Compounds of the invention were incubated with 1 nM [^3H]Mesulergine for 60 minutes at 25° C. Non-specific binding was estimated in the presence of 1 μM Mianserin. Receptor proteins were filtered and washed, the filters were then counted to determine [^3H]Mesulergine specifically bound. […] Biochemical assay results are presented as the percent inhibition of specific binding in Table 5.

Experiment [2] deals with T2, human recombinant dopamine D2L receptor (Homo sapiens, UniProt P14416).
T2 construct: expressed in transfected cells; host or cells: CHO cells
T2 sequence (P14416 whole entry): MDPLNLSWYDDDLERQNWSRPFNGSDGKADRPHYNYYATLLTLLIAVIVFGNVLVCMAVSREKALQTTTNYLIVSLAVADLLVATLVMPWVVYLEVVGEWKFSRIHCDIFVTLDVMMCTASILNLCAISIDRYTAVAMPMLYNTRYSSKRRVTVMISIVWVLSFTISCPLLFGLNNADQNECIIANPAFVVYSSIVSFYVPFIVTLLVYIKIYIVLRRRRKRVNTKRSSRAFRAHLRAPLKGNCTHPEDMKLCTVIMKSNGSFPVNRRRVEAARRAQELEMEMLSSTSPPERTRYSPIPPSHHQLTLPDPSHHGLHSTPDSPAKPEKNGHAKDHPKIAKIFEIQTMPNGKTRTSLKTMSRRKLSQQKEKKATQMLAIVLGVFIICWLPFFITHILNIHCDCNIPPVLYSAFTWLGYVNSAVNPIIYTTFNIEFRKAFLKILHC
In words: Dopamine D2L radioligand binding ([3H]Spiperone). As to conditions: 2 h, 1 μM ligand conc.; read-out: Percent Inhibition of ligand binding Dopamine (1 μM ligand conc.) D2L. In short, it runs like this:
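CHO-expressed receptor in 50 mM Tris-HCl pH 7.4 with ascorbic acid, 0.001% BSA, 150 mM NaCl; 0.16 nM [3H]spiperone, 120 min at 25 °C; nonspecific binding with haloperidol.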

The target in experiment [3] is T3, human recombinant serotonin (5-Hydroxytryptamine) 5-HT6 receptor (Homo sapiens, UniProt P50406).
T3 construct: expressed in transfected cells; host or cells: human HeLa cells
T3 sequence (P50406 whole entry): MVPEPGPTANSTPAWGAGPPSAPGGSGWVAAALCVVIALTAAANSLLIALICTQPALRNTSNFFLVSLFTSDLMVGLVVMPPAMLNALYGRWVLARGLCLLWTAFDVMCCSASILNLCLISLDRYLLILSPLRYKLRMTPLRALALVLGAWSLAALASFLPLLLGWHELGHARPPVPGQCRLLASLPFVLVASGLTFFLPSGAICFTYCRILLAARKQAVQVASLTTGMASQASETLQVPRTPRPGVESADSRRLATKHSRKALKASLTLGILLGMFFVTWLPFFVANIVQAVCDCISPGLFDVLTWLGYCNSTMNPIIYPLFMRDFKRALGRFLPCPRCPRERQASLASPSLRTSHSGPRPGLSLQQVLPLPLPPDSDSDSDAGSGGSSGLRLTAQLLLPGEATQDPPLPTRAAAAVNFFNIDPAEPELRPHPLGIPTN
In words: Serotonin 5-HT6 radioligand binding ([3H]LSD). As to conditions: 2 h; read-out: Percent Inhibition of ligand binding Serotonin (1 μM ligand concentration) 5-HT6. In a few lines:
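Human 5-HT6 receptor expressed in HeLa cells, in Tris-HCl pH 7.4 with 150 mM NaCl, ascorbic acid and BSA. Compounds at 1 μM or lower (1% DMSO) incubated 120 min at 37° C with 1.5 nM [3H]LSD. Non-specific binding defined with serotonin; filter counting gives % inhibition of specific binding.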

For experiment [4], the target named is T4, human recombinant adrenergic α2A receptor (Homo sapiens, UniProt P08913).
T4 construct: expressed in transfected cells; host or cells: insect Sf9 cells
T4 sequence (P08913 1-465): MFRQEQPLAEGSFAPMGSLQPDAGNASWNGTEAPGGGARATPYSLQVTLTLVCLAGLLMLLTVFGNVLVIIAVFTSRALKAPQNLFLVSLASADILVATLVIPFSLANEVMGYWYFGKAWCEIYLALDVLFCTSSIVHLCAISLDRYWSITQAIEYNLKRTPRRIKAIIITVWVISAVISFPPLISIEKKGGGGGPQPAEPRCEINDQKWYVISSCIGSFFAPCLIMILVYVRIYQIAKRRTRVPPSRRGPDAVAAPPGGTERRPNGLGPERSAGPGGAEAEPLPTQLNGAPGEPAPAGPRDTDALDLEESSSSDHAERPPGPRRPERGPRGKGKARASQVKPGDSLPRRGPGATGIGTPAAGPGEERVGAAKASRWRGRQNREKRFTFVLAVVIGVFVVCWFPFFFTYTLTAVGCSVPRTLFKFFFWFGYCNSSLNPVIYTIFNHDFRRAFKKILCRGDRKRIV
As to the kind of experiment: Adrenergic α2A radioligand binding ([3H]MK-912). The conditions noted are these: 1 h; read-out: Percent Inhibition of ligand binding Adrenergic (1 μM ligand conc.) α2A. As to the method:
To evaluate in radioligand binding assays the activity of compounds of the invention, human recombinant adrenergic α2A receptor expressed in insect Sf9 cells (Uhlen S et al. J Pharmacol Exp Ther. 271:1558, 1994) in a modified Tris-HCl buffer (50 mM Tris-HCl, pH 7.4, 12.5 mM MgCl2, 2 mM EDTA) was used. Compounds of invention were incubated with 1 nM [^3H]MK-912 for 60 minutes at 25° C. MK912 is (2S-trans)-1,3,4,5′,6,6′,7,12b-octahydro-1′,3′-dimethyl-spiro[2H-benzofuro[2,3-a]quinolizine-2,4′(1′H)-pyrimidin]-2′(3′H)-one hydrochloride Non-specific binding was estimated in the presence of 10 μM WB-4101 (2-(2,6-Dimethoxyphenoxyethyl)aminomethyl-1,4-benzodioxane hydrochloride). Receptor proteins were filtered and washed, the filters were then counted to determine [^3H]MK-912 specifically bound. Compounds were screened at 1 μM or lower, using 1% DMSO as vehicle. Biochemical assay results are presented as the percent inhibition of specific binding in Table 4.

SMILES strings stand for the structures.

We go through 17 compounds from patent US9260429B2, “Pyrido[3,4-B]indoles and methods of use” (Medivation Technologies, Inc., priority 2008, dated 2016).

As for `Cc1ccc2c(c1)c1c(n2CCc2ccc(C)nc2)CN(C)CC1` [Compound 1, 2,3,4,9-tetrahydro-2,6-dimethyl-9-(2-(6-methylpyridin-3-yl)ethyl)-1H-pyrido[3,4-b]indole], the inhibition at 1 µM in experiment [1] worked out at 25%; in experiment [2], 6%; in experiment [3], 5%; in experiment [4], 74%.
Take `Cc1ccc2c(c1)c1c(n2CCC2CCCCC2)CN(C)CC1` [Compound 2, 9-(2-cyclohexylethyl)-2,3,4,9-tetrahydro-2,6-dimethyl-1H-pyrido[3,4-b]indole]: the inhibition at 1 µM in experiment [1] is 84%; in experiment [2] it was -7%; in experiment [3] it was 58%; in experiment [4] it was 81%.
As for `CN1CCc2c(n(CCc3ccc(F)cc3)c3ccc(Cl)cc23)C1` [Compound 3, 9-(4-fluorophenethyl)-6-chloro-2,3,4,9-tetrahydro-2-methyl-1H-pyrido[3,4-b]indole], the inhibition at 1 µM in experiment [1] turned out to be 90%; in experiment [2], 47%; in experiment [3] it was 100%; in experiment [4], 99%.
`Cc1ccc2c(c1)c1c(n2CCc2ccc(C(F)(F)F)nc2)CN(C)CC1` [Compound 5, 9-(2-(6-(trifluoromethyl)pyridin-3-yl)ethyl)-2,3,4,9-tetrahydro-2,6-dimethyl-1H-pyrido[3,4-b]indole]: the inhibition at 1 µM in experiment [1] was found to be 39%; in experiment [2], 0%; in experiment [3], 6%; in experiment [4], 74%.
The matching figures for `CC(C)CCN(C)C(=O)Cn1c2c(c3cc(Cl)ccc31)CCN(C)C2` [Compound 14, 2-(6-chloro-1,2,3,4-tetrahydro-2-methylpyrido[3,4-b]indol-9-yl)-N-isopentyl-N-methylacetamide]: 20%, 6%, 12% and 19%.
`CN1CCc2c(n(CC(=O)Nc3ccc(F)cc3)c3ccc(Cl)cc23)C1` [Compound 15, 2-(6-chloro-1,2,3,4-tetrahydro-2-methylpyrido[3,4-b]indol-9-yl)-N-(4-fluorophenyl)acetamide]: the inhibition at 1 µM in experiment [1] is 15%; in experiment [2], -5%; in experiment [3], -2%; in experiment [4], 15%.
In the case of `CN1CCc2c(n(CC(=O)N(C)C)c3ccc(Cl)cc23)C1` [Compound 16, 2-(6-chloro-1,2,3,4-tetrahydro-2-methylpyrido[3,4-b]indol-9-yl)-N,N-dimethylacetamide], the inhibition at 1 µM was -18% in experiment [1], -7% in experiment [2], 9% in experiment [3] and -4% in experiment [4].
Turning to `CN1CCc2c(n(CC(=O)NC3CCCCC3)c3ccc(Cl)cc23)C1` [Compound 17, 2-(6-chloro-1,2,3,4-tetrahydro-2-methylpyvrido[3,4-b]indol-9-yl)-N-cyclohexylacetamide], the inhibition at 1 µM in experiment [1] is 3%; in experiment [2], -3%; in experiment [3], 3%; in experiment [4], 17%.
Regarding `CN1CCc2c(n(CC(=O)N(C)C3CCCCC3)c3ccc(Cl)cc23)C1` [Compound 18, 2-(6-chloro-1,2,3,4-tetrahydro-2-methylpyrido[3,4-b]indol-9-yl)-N-cyclohexyl-N-methylacetamide], the inhibition at 1 µM in experiment [1] is 3%; in experiment [2], 0%; in experiment [3], 1%; in experiment [4], 4%.
For `COC(=O)Cn1c2c(c3cc(C)ccc31)CCN(C)C2` [Compound 21, methyl 2-(1,2,3,4-tetrahydro-2,6-dimethylpyrido[3,4-b]indol-9-yl)acetate], in experiment [1] (1 μM ligand concentration), the “Percent Inhibition of ligand binding Serotonin (1 μM ligand concentration) 5-HT2C” value came to 16%. The inhibition at 1 µM in experiment [2] was -1%; in experiment [3], 6%; in experiment [4], 0%.
In the case of `CN1CCc2c(n(CCCc3ccccc3)c3ccc(Cl)cc23)C1` [Compound 29, 6-chloro-2,3,4,9-tetrahydro-2-methyl-9-(3-phenylpropyl)-1H-pyrido[3,4-b]indole], the inhibition at 1 µM in experiment [1] is 90%; in experiment [2], 24%; in experiment [3] it was 62%; in experiment [4], 96%.
On to `CN1CCc2c(n(CCN3CCCCC3)c3ccc(Cl)cc23)C1` [Compound 34, 6-chloro-2,3,4,9-tetrahydro-2-methyl-9-(2-(piperidin-1-yl)ethyl)-1H-pyrido[3,4-b]indole], for which the inhibition at 1 µM came to 37% in experiment [1], 9% in experiment [2], 16% in experiment [3] and 66% in experiment [4].
For the compound `CN1CCc2c(n(CCC3CCCC3)c3ccc(Cl)cc23)C1` [Compound 35, 6-chloro-9-(2-cyclopentylethyl)-2,3,4,9-tetrahydro-2-methyl-1H-pyrido[3,4-b]indole], the inhibition at 1 µM worked out at 87% in experiment [1], 3% in experiment [2], 67% in experiment [3] and 88% in experiment [4].
For the compound `CC1CCN(C(=O)Cn2c3c(c4cc(Cl)ccc42)CCN(C)C3)CC1` [Compound 38, 2-(6-chloro-1,2,3,4-tetrahydro-2-methylpyrido[3,4-b]indol-9-yl)-1-(4-methylpiperidin-1-vyl)ethanone], the inhibition at 1 µM is 14% in experiment [1], -8% in experiment [2], -2% in experiment [3] and 15% in experiment [4].
For the compound `CN1CCc2c(n(CC(=O)N3CCCC3)c3ccc(Cl)cc23)C1` [Compound 40, 2-(6-chloro-1,2,3,4-tetrahydro-2-methylpyrido[3,4-b]indol-9-yl)-1-(pyrrolidin-1-yl)ethanone], the inhibition at 1 µM is 12% in experiment [1], -11% in experiment [2], 6% in experiment [3] and 1% in experiment [4].
For the compound `Cc1ccc2c(c1)c1c(n2CCC(=O)N2CCCCC2)CN(C)CC1` [Compound 43, 3-(1,2,3,4-tetrahydro-2,6-dimethylpyrido[3,4-b]indol-9-yl)-1-(piperidin-1-yl)propan-1-one], the inhibition at 1 µM in experiment [1] was 31%; in experiment [2] it was -8%; in experiment [3], 3%; in experiment [4], 42%.
The matching figures for `CN1CCc2c(n(CCCC(=O)N3CCCCC3)c3ccc(Cl)cc23)C1` [Compound 44, 4-(6-chloro-1,2,3,4-tetrahydro-2-methylpyrido[3,4-b]indol-9-yl)-1-(piperidin-1-yl)butan-1-one]: 54%, 8%, 12% and 77%.
